{
  "source": "patent EP4818179A1",
  "about": "“PREPARATION FOR AND USE OF PYRIMIDO-THIOPYRANDIONE INHIBITOR FOR KRAS G12C MUTANT PROTEIN” (Ya Therapeutics Inc, priority 2024, dated 2025)",
  "data": [
    {"system": "H358 (KRAS G12C mutant) cells", "assay": "Tumor cell proliferation inhibition experiment (Cell Titer-Glo luminescent cell viability assay)", "conditions": "Homo sapiens, NCI-H358, 72 h, read-out: NCI-H538 IC50(nm)", "units": {"IC50": "nM"}, "description": "H358 (KRAS G12C mutant) cells were digested, centrifuged, and resuspended. Cell density was determined using a Scepter automated cell counter. The cells were diluted to a solution containing 44,000 cells per milliliter. The adjusted cell solution was added to 90 µL per well in a 96-well culture plate. The 96-well plate was placed in a 37°C, 5% CO2 incubator. After culturing the cells for 24 hours, different concentrations of the test compound were added. The cells were then cultured with the compound for 72 hours in the presence of 10% fetal bovine serum. The ATP content was measured using the Cell Titer-Glo luminescent cell viability assay kit (see manufacturer's instructions for details) to assess cell growth inhibition. In short, 30 µL of Cell Titer-Glo reagent was added to each well, and the plate was shaken for 10 minutes to induce cell lysis. The fluorescence signal was detected and recorded using a Fluoroskan Ascent FL (Thermo). The maximum signal value was obtained from cells treated with dimethyl sulfoxide for 72 hours. Minimum signal value was obtained from a single culture medium (zero cell count). Inhibition rate % = (maximum signal value - minimum signal value) / (maximum signal value - minimum signal value × 100%). Data was processed using GraphPadprism 5 software. IC50 values were calculated by fitting an S-shaped dose-response curve.", "values": [
      {"smiles": "C=CC(=O)N1CCN(c2nc(OC[C@@]34CCCN3C[C@H](F)C4)nc3c2CS(=O)(=O)C(c2c(F)c(N)cc(C)c2C(F)(F)F)C3)[C@@H](C)C1", "note": "(stereo partly drawn) [Compound 1, 1-((3S)-4-(7-(3-amino-2-fluoro-5-methyl-6-(trifluoromethyl)phenyl)-2-(((2R,7AS)-2-fluorotetrahydro-1H-pyrrolazin-7a(5H)-yl)methoxy)-6,6-dioxo-7,8-dihydro-5H-thiaran[4,3-d]pyrimidin-4-yl)-3-methylpyrazin-1-yl)prop-2-en-1-one]", "IC50": "< 10"},
      {"smiles": "C=CC(=O)N1CCN(c2nc(OC[C@@]34CCCN3C[C@H](F)C4)nc3c2CS(=O)(=O)[C@H](c2c(F)c(N)cc(C)c2C(F)(F)F)C3)[C@@H](C)C1", "note": "[Compound 1A, 1-((3S)-4-((7S)-7-(3-amino-2-fluoro-5-methyl-6-(trifluoromethyl)phenyl)-2-(((2R,7A S)-2-fluorotetrahydro-1H-pyrrolazin-7a(5H)-yl)methoxy)-6,6-dioxo-7,8-dihydro-5H-thiaran[4,3-d]pyrimidin-4-yl)-3-methylpyrazin-1-yl)prop-2-en-1-one]", "IC50": "< 10"},
      {"smiles": "C=CC(=O)N1CCN(c2nc(OC[C@@]34CCCN3C[C@H](F)C4)nc3c2CS(=O)(=O)[C@@H](c2c(F)c(N)cc(C)c2C(F)(F)F)C3)[C@@H](C)C1", "note": "[Compound 1B, 1-((3S)-4-((7R)-7-(3-amino-2-fluoro-5-methyl-6-(trifluoromethyl)phenyl)-2-(((2R,7A S)-2-fluorotetrahydro-1H-pyrrolazin-7a(5H)-yl)methoxy)-6,6-dioxo-7,8-dihydro-5H-thiaran[4,3-d]pyrimidin-4-yl)-3-methylpyrazin-1-yl)prop-2-en-1-one]", "IC50": "< 10"},
      {"smiles": "C=C(F)C(=O)N1CCN(c2nc(OC[C@@]34CCCN3C[C@H](F)C4)nc3c2CS(=O)(=O)C(c2c(F)c(N)cc(C)c2C(F)(F)F)C3)[C@@H](C)C1", "note": "(stereo partly drawn) [Compound 2, 1-((3S)-4-(7-(3-amino-2-fluoro-5-methyl-6-(trifluoromethyl)phenyl)-2-(((2R,7AS)-2-fluorotetrahydro-1H-pyrrolazin-7a(5H)-yl)methoxy)-6,6-dioxo-7,8-dihydro-5H-thiaran[4,3-d]pyrimidin-4-yl)-3-methylpyrazin-1-yl)-2-fluoroprop-2-en-1-one]", "IC50": "< 10"},
      {"smiles": "C=C(F)C(=O)N1CCN(c2nc(OC[C@@]34CCCN3C[C@H](F)C4)nc3c2CS(=O)(=O)[C@H](c2c(F)c(N)cc(C)c2C(F)(F)F)C3)[C@@H](C)C1", "note": "[Compound 2A, 1-((3S)-4-((7S)-7-(3-amino-2-fluoro-5-methyl-6-(trifluoromethyl)phenyl)-2-(((2R,7A S)-2-fluorotetrahydro-1H-pyrrolazin-7a(5H)-yl)methoxy)-6,6-dioxo-7,8-dihydro-5H-thiaran[4,3-d]pyrimidin-4-yl)-3-methylpyrazin-1-yl)-2-fluoroprop-2-en-1-one]", "IC50": "< 10"},
      {"smiles": "C=C(F)C(=O)N1CCN(c2nc(OC[C@@]34CCCN3C[C@H](F)C4)nc3c2CS(=O)(=O)[C@@H](c2c(F)c(N)cc(C)c2C(F)(F)F)C3)[C@@H](C)C1", "note": "[Compound 2B, 1-((3S)-4-((7R)-7-(3-amino-2-fluoro-5-methyl-6-(trifluoromethyl)phenyl)-2-(((2R,7A S)-2-fluorotetrahydro-1H-pyrrolazin-7a(5H)-yl)methoxy)-6,6-dioxo-7,8-dihydro-5H-thiaran[4,3-d]pyrimidin-4-yl)-3-methylpyrazin-1-yl)-2-fluoroprop-2-en-1-one]", "IC50": "< 10"},
      {"smiles": "C=CC(=O)N1CCN(c2nc(OC[C@@]34CCCN3C[C@H](F)C4)nc3c2CS(=O)(=O)C(c2c(F)c(N)cc(C)c2C(F)(F)F)C3)C[C@@H]1CC#N", "note": "(stereo partly drawn) [Compound 3, 2-((2S)-1-Acryloyl-4-(7-(3-amino-2-fluoro-5-methyl-6-(trifluoromethyl)phenyl)-2-(((2R,7AS)-2-fluorotetrahydro-1H-pyrrolazin-7a(5H)-yl)methoxy)-6,6-dioxo-7,8-dihydro-5H-thiaran[4,3-d]pyrimidin-4-yl)pyrazin-2-yl)acetonitrile]", "IC50": "< 10"},
      {"smiles": "C=CC(=O)N1CCN(c2nc(OC[C@@]34CCCN3C[C@H](F)C4)nc3c2CS(=O)(=O)[C@H](c2c(F)c(N)cc(C)c2C(F)(F)F)C3)C[C@@H]1CC#N", "note": "[Compound 3A, 2-((2S)-1-Acryloyl-4-((7S)-7-(3-amino-2-fluoro-5-methyl-6-(trifluoromethyl)phenyl)-2-(((2R,7AS)-2-fluorotetrahydro-1H-pyrrolazin-7a(5H)-yl)methoxy)-6,6-dioxo-7,8-di hydro-5H-thiaran[4,3-d]pyrimidin-4-yl)pyrazin-2-yl)acetonitrile]", "IC50": "< 10"},
      {"smiles": "C=CC(=O)N1CCN(c2nc(OC[C@@]34CCCN3C[C@H](F)C4)nc3c2CS(=O)(=O)[C@@H](c2c(F)c(N)cc(C)c2C(F)(F)F)C3)C[C@@H]1CC#N", "note": "[Compound 3B, 2-((2S)-1-Acryloyl-4-((7R)-7-(3-amino-2-fluoro-5-methyl-6-(trifluoromethyl)phenyl) -2-(((2R,7AS)-2-fluorotetrahydro-1H-pyrrolazin-7a(5H)-yl)methoxy)-6,6-dioxo-7,8-dihydro-5H-thiaran[4,3-d]pyrimidin-4-yl)pyrazin-2-yl)acetonitrile]", "IC50": "< 10"},
      {"smiles": "C=C(F)C(=O)N1CCN(c2nc(OC[C@@]34CCCN3C[C@H](F)C4)nc3c2CS(=O)(=O)C(c2c(F)c(N)cc(C)c2C(F)(F)F)C3)C[C@@H]1CC#N", "note": "(stereo partly drawn) [Compound 4, 2-((2S)-4-(7-(3-amino-2-fluoro-5-methyl-6-(trifluoromethyl)phenyl)-2-(((2R,7AS)-2-fluorotetrahydro-1H-pyrrolazin-7a(5H)-yl)methoxy)-6,6-dioxo-7,8-dihydro-5H-thiaran[4,3-d]pyrimidin-4-yl)-1-(2-fluoroacryloyl)pyrazin-2-yl)acetonitrile]", "IC50": "< 10"},
      {"smiles": "C=C(F)C(=O)N1CCN(c2nc(OC[C@@]34CCCN3C[C@H](F)C4)nc3c2CS(=O)(=O)[C@H](c2c(F)c(N)cc(C)c2C(F)(F)F)C3)C[C@@H]1CC#N", "note": "[Compound 4A, 2-((2S)-4-((7S)-7-(3-amino-2-fluoro-5-methyl-6-(trifluoromethyl)phenyl)-2-(((2R, 7A S)-2-fluorotetrahydro-1H-pyrrolazin-7a(5H)-yl)methoxy)-6,6-dioxo-7,8-dihydro-5H-thiaran[4,3-d]pyrimidin-4-yl)-1-(2-fluoroacryloyl)pyrazin-2-yl)acetonitrile]", "IC50": "< 10"},
      {"smiles": "C=C(F)C(=O)N1CCN(c2nc(OC[C@@]34CCCN3C[C@H](F)C4)nc3c2CS(=O)(=O)[C@@H](c2c(F)c(N)cc(C)c2C(F)(F)F)C3)C[C@@H]1CC#N", "note": "[Compound 4B, 2-((2S)-4-((7R)-7-(3-amino-2-fluoro-5-methyl-6-(trifluoromethyl)phenyl)-2-(((2R, 7A S)-2-fluorotetrahydro-1H-pyrrolazin-7a(5H)-yl)methoxy)-6,6-dioxo-7,8-dihydro-5H-thiaran[4,3-d]pyrimidin-4-yl)-1-(2-fluoroacryloyl)pyrazin-2-yl)acetonitrile]", "IC50": "< 10"},
      {"smiles": "C=CC(=O)N1CCN(c2nc(OC[C@@]34CCCN3C[C@H](F)C4)nc3c2CS(=O)(=O)C(c2nc(N)cc(C)c2C(F)(F)F)C3)[C@@H](C)C1", "note": "(stereo partly drawn) [Compound 5, 1-((3S)-4-(7-(6-amino-4-methyl-3-(trifluoromethyl)pyridin-2-yl)-2-(((2R,7AS)-2-fluorotetrahydro-1H-pyrrolazin-7a(5H)-yl)methoxy)-6,6-dioxo-7,8-dihydro-5H-thiaran[4,3-d]pyrimidin-4-yl)-3-methylpyrazin-1-yl)prop-2-en-1-one]", "IC50": "< 10"},
      {"smiles": "C=CC(=O)N1CCN(c2nc(OC[C@@]34CCCN3C[C@H](F)C4)nc3c2CS(=O)(=O)[C@H](c2nc(N)cc(C)c2C(F)(F)F)C3)[C@@H](C)C1", "note": "[Compound 5A, 1-((3S)-4-((7S)-7-(6-amino-4-methyl-3-(trifluoromethyl)pyridin-2-yl)-2-(((2R,7AS)-2-fluorotetrahydro-1H-pyrrolazin-7a(5H)-yl)methoxy)-6,6-dioxo-7,8-dihydro-5H-thiaran[4,3-d]pyrimidin-4-yl)-3-methylpyrazin-1-yl)prop-2-en-1-one]", "IC50": "< 10"},
      {"smiles": "C=CC(=O)N1CCN(c2nc(OC[C@@]34CCCN3C[C@H](F)C4)nc3c2CS(=O)(=O)[C@@H](c2nc(N)cc(C)c2C(F)(F)F)C3)[C@@H](C)C1", "note": "[Compound 5B, 1-((3S)-4-((7R)-7-(6-amino-4-methyl-3-(trifluoromethyl)pyridin-2-yl)-2-(((2R,7AS)-2-fluorotetrahydro-1H-pyrrolazin-7a(5H)-yl)methoxy)-6,6-dioxo-7,8-dihydro-5H-thiaran[4,3-d]pyrimidin-4-yl)-3-methylpyrazin-1-yl)prop-2-en-1-one]", "IC50": "< 10"},
      {"smiles": "C=C(F)C(=O)N1CCN(c2nc(OC[C@@]34CCCN3C[C@H](F)C4)nc3c2CS(=O)(=O)C(c2nc(N)cc(C)c2C(F)(F)F)C3)[C@@H](C)C1", "note": "(stereo partly drawn) [Compound 6, 1-((3S)-4-(7-(6-amino-4-methyl-3-(trifluoromethyl)pyridin-2-yl)-2-(((2R,7AS)-2-fluorotetrahydro-1H-pyrrolazin-7a(5H)-yl)methoxy)-6,6-dioxo-7,8-dihydro-5H-thiaran[4,3-d]pyrimidin-4-yl)-3-methylpyrazin-1-yl)-2-fluoroprop-2-en-1-one]", "IC50": "< 10"},
      {"smiles": "C=C(F)C(=O)N1CCN(c2nc(OC[C@@]34CCCN3C[C@H](F)C4)nc3c2CS(=O)(=O)[C@H](c2nc(N)cc(C)c2C(F)(F)F)C3)[C@@H](C)C1", "note": "[Compound 6A, 1-((3S)-4-((7S)-7-(6-amino-4-methyl-3-(trifluoromethyl)pyridin-2-yl)-2-(((2R,7AS)-2-fluorotetrahydro-1H-pyrrolazin-7a(5H)-yl)methoxy)-6,6-dioxo-7,8-dihydro-5H-thiaran[4,3-d]pyrimidin-4-yl)-3-methylpyrazin-1-yl)-2-fluoroprop-2-en-1-one]", "IC50": "< 10"},
      {"smiles": "C=C(F)C(=O)N1CCN(c2nc(OC[C@@]34CCCN3C[C@H](F)C4)nc3c2CS(=O)(=O)[C@@H](c2nc(N)cc(C)c2C(F)(F)F)C3)[C@@H](C)C1", "note": "[Compound 6B, 1-((3S)-4-((7R)-7-(6-amino-4-methyl-3-(trifluoromethyl)pyridin-2-yl)-2-(((2R,7AS)-2-fluorotetrahydro-1H-pyrrolazin-7a(5H)-yl)methoxy)-6,6-dioxo-7,8-dihydro-5H-thiaran[4,3-d]pyrimidin-4-yl)-3-methylpyrazin-1-yl)-2-fluoroprop-2-en-1-one]", "IC50": "< 10"}
    ]}
  ]
}
